According to ChEMBL document CHEMBL1131358, “An approach to use an unusual adenosine transporter to selectively deliver polyamine analogues to trypanosomes” (Bioorg Med Chem Lett, 1998):

What was measured:
[1] = tested on: Trypanosoma brucei; assay: Inhibitory activity against adenosine uptake through P2 adenosine transporter of blood stream Trypanosoma brucei trypomastigotes at the concentration 1 ug/mL
[2] = tested on: Trypanosoma brucei; assay: Inhibitory activity against adenosine uptake through P2 adenosine transporter of blood stream Trypanosoma brucei trypomastigotes at the concentration 10 ug/mL
[3] = tested on: Trypanosoma brucei brucei; assay: In vitro activity against Trypanosoma brucei trypomastigotes form; type: functional, organism-based
[4] = tested on: Trypanosoma brucei; assay: Inhibitory activity against adenosine uptake through P2 adenosine transporter of blood stream Trypanosoma brucei trypomastigotes at the concentration 100 ug/mL
[5] = tested on: Trypanosoma brucei brucei; assay: In vitro activity against bloodstream from trypomastigotes.; type: functional, organism-based

inhibition [1] [%]	inhibition [2] [%]	IC50 [3] [µM]	inhibition [4] [%]	IC50 [5] [µM]	SMILES
2	17	24	37		NCCCNCCCCN(CCCN)CCCNc1nc(N)nc(N)n1
12	32		77	21	NCCCNCCCCCCCNCCCNc1nc(N)nc(N)n1
0	18		88	24	Nc1nc(N)nc(NCCCNCCCNCCCCCCCNCCCNCCCNc2nc(N)nc(N)n2)n1
36	63		93	110	Nc1nc(N)nc(NCCCNCCCCCCCNCCCNc2nc(N)nc(N)n2)n1

Further lines, the compound ahead of its results:

SMILES	inhibition [1] [%]	inhibition [2] [%]	IC50 [3] [µM]	inhibition [4] [%]	IC50 [5] [µM]
N=C(N)c1ccc(/N=N/Nc2ccc(C(=N)N)cc2)cc1 [DIMINAZENE]	67	84		99	0.003
NCCCNCCCCN(CCCN)c1nc(N)nc(N)n1	24	44	12	60	
NCCCCN(CCCN)CCCNc1nc(N)nc(N)n1	7	5	> 200	61	
Nc1[nH]cnc2ncnc1-2	88	89		99	
NCCCCN(CCCN)c1nc(N)nc(N)n1	29	47	> 270	73	
